Literature values as cited in patent publication US20080089848A1, “INTRATHECAL INJECTION OF MICROBUBBLES” (priority 2006, published 2008).

What was measured:
[1] = test system: middle cerebral artery occlusion
[2] = test system: vasospasm
[3] = test system: glutamate-induced nitric oxide related neurotoxicity
[4] = systemic administration, patients with intracranial hypertension
[5] = test system: traumatic brain injury; conditions: parental administration no more than 12 hours post-trauma
[6] = test system: primary murine cerebellar granule neurons
[7] = test system: beta amyloid protein; dopaminergic neurons
[8] = test system: vasospasm following SAH; conditions: collagen devices, canines with autologous blood in the cisterna magna
[9] = test system: vasospasm; remark: listed apart in the source
[10] = rat MCA occlusion, retrograde cerebral vein infusion
[11] = intracisternal injection, patients, Hamada 2003

CCNCc1cc(C(C)(C)C)c(O)c(C(C)(C)C)c1 [LY231617]
BBB permeability [1, 10]: significant improvement | local cerebral blood flow [1, 10]: significant increase | ischemic damage ([1]; seven hours post-MCA occlusion): significantly reduced

NCCN(CCN)/[N+]([O-])=N/O [diethylene-triamine/NO]
vasospasm in rabbits ([2]; implants in the cisterna magna, Pradilla): prevented vasospasm | vasospasm in the rabbit basilar artery ([2]; implants in the subarachnoid space, Gabikian): prevented vasospasm

CN(c1nc2ccccc2s1)C1CCN(C[C@H](O)COc2ccc(F)c(F)c2)CC1 [lubeluzole]
glutamate-induced nitric oxide related neurotoxicity [3]: inhibits

O=S(=O)([O-])[O-].[Mg+2] [magnesium sulfate]
CSF ionized magnesium concentration [4]: failed to increase | increase of plasma magnesium levels [4]: > 50%

[Mg+2] [magnesium]
brain magnesium homeostasis [5]: restores brain magnesium homeostasis | motor and cognitive outcome [5]: profoundly improves both motor and cognitive outcome

TNF-α
concentration that markedly reduces the capacity of IGF-I to promote survival [6]: ≥ 10 pg/mL

VEGF
neuroprotection in AD ([7]; Yang): provides neuroprotection in AD by binding to beta amyloid protein | neuroprotection in PD ([7]; low dose, Yasuhara): neuroprotective towards dopaminergic neurons

hirudin
reduction in the diameter of the basilar artery [8]: lowered the reduction in the diameter of the basilar artery

urokinase
safety and prevention of vasospasms ([9]; human, in vivo): safe and reasonable means of preventing vasospasms | occurrence of symptomatic vasospasm [9, 11]: significantly reduced | rate of permanent neurological deficits [9, 11]: lower rate
